From patent US10787430B2, “Hemoglobin modifier compounds and uses thereof” (FronThera U.S. Pharmaceuticals LLC, priority 2016, dated 2020)

Assays:
[1] = system: sickled HbSS whole blood (RBC sickling); experiment: Anti-sickling assay in HbSS sickled blood under hypoxic induction; type: cell-based, human; settings: HbSS whole blood 26% Hct, 20 mins hypoxic induction; 0.2 mM compounds (FIG. 2)
Procedure: Materials: • Blood collected after informed consent from sickle cell individuals. • HBS buffer: 10 mM HEPES, 145 mM NaCl, pH 7.4 • Hemox buffer: Buffer provided for the hemox analyzer • Control Compound stock solution in DMSO (50 mM) stored at RT • Control Compound work solution (CWS): 10 μl of DMSO was added by Hamilton to 90 μl of HBS buffer (20 mM Hepes, 145 mM NaCl, pH 7.4) to create a working solution with a final concentration of 5 mM drug and 10% DMSO). • Compound stock solution in DMSO (50 mM) stored at RT • Compound work solution (WS): 10 μl of DMSO was added by Hamilton to 90 μl of HBS buffer (20 mM Hepes, 145 mM NaCl, pH 7.4) to create a working solution with a final concentration of 5 mM drug and 10% DMSO). • DMSO buffer: 10% DMSO (DB), same as WS but without drug. This will be used to maintain DMSO the same for different drug incubations. Test Protocol:
Collect blood from Clinic: Blood were collected after informed consent according to an approved IRB protocol. • Run Advia 120 analysis on SCD blood, to determine Hct. • Dilute blood to 20% Hct with HBS to total volume of 3 ml. • This cell suspension (CS) will be used for all experiments.
Incubation • 1. 200 μl CS • 2. 200 μl CS+20 μl CWS (5 mM diluted 10 times=0.5 mM control final)−(1% DMSO) • 3. 200 μl CS+20 μl WS (5 mM diluted 10 times=0.5 mM control final)−(1% DMSO) • 4. 200 μl CS+8 μl WS (0.2 mM drug final)+DB−(1% DMSO) • Incubate 30 minutes at 37° C.
50 μl into 1 ml HBS+2% BSA buffer. Eight time points (0-20 minutes) at 2% oxygen, 10,000 events each)
The sickling runs provide sets samples that need to be run on the AMNIS image flow and are subsequently analyzed with pixel analysis software.
Drug was provided at 50 mM concentration in DMSO, and stored at room temperature until use. 10 μl of DMSO was added by Hamilton to 90 μl of HBS buffer (20 mM Hepes, 145 mM NaCl, pH 7.4) to create a working solution with a final concentration of 5 mM drug and 10% DMSO). Blood was collected from a sickle cell patient in EDTA anticoagulant. To 200 μl of whole blood, a 20 or 8 μl of working solution was added resulting in a final drug concentration of 0.5 mM or 0.2 mM respectively. The DMSO concentration in both was corrected to 1%. The final hematocrit was measured by ADVIA analysis to be 26%. […] The delta hemox (%) comparing Example 29e with GBT440 is shown in FIG. 1A (0.2 mM) and FIG. 1B (0.5 mM).
Anti-sickling is shown in FIG. 2 with M: maximum percentage of sickled cells during 20 mins of hypoxic induction, T: time needed to reach 50% of M, and Z: baseline percentage of sickled cells prior to hypoxic induction.

[2] = Microsome stability evaluation in human liver microsomes; type: in vitro ADME; settings: read-out: Human microsome, t½
Source text: (§1) Example A6: Microsome Stability Evaluation in Human and Rat Liver Microsomes

[3] = biological target: T1, hemoglobin (20% hct blood) (Homo sapiens, UniProt P68871+P69905); experiment: Dose-dependent whole blood OEC studies; type: cell-based; settings: 37° C., 1 hr; for delta p50 0.2 mM: 0.2 mM compound; for delta p50 0.5 mM: 0.5 mM compound
T1 construct: Normal whole blood was collected from adult healthy donors; from tissue; host or cells: normal human whole blood (red blood cells), adult healthy donors
T1 sequence (P69905 2-142 limits assumed): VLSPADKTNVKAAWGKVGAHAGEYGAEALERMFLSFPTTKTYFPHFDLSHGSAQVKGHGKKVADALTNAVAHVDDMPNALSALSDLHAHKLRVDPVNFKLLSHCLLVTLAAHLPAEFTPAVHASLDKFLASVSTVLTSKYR
T1 sequence (P68871 2-147 limits assumed): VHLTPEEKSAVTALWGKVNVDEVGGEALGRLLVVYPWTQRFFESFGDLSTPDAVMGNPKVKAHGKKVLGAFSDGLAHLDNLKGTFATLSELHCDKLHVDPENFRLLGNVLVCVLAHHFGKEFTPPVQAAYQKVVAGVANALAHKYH
In short: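 Human whole blood at 20% hct shaken with 0.2, 0.5 or 1 mM compound at 37° C. for 1 hr; DMSO (1%) vehicle control. Oxygen equilibrium curves gave pO2 and Hb oxygen saturation (sO2), reported as delta p50%.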

[4] = Microsome stability evaluation in rat liver microsomes; type: in vitro ADME; settings: read-out: Rat microsome, t½
Source text: as §1

[5] = biological target: T2, CYP2C19 (Homo sapiens, UniProt P33261); experiment: CYP inhibition evaluation in human liver microsomes; type: in vitro ADME
T2 construct: from tissue; host or cells: human liver microsomes
T2 sequence (P33261 whole entry): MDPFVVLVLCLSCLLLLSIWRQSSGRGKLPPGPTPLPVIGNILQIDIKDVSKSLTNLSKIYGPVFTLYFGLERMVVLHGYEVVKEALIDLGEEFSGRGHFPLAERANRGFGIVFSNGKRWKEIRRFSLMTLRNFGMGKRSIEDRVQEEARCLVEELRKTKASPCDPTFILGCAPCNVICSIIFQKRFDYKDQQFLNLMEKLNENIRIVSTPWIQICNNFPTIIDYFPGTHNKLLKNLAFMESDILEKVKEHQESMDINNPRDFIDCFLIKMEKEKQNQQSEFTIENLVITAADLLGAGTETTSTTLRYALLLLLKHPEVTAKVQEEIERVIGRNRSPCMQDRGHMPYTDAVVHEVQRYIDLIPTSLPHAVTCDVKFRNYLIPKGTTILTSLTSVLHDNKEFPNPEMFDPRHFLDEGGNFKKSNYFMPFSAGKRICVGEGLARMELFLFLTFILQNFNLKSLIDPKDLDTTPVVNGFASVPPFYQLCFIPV
Source text: (§2) Example A5: CYP Inhibition Evaluation in Human Liver Microsomes

[6] = biological target: T3, CYP2C9 (Homo sapiens, UniProt P11712); experiment: as above; type: in vitro ADME
T3 construct: from tissue; host or cells: human liver microsomes
T3 sequence (P11712 whole entry): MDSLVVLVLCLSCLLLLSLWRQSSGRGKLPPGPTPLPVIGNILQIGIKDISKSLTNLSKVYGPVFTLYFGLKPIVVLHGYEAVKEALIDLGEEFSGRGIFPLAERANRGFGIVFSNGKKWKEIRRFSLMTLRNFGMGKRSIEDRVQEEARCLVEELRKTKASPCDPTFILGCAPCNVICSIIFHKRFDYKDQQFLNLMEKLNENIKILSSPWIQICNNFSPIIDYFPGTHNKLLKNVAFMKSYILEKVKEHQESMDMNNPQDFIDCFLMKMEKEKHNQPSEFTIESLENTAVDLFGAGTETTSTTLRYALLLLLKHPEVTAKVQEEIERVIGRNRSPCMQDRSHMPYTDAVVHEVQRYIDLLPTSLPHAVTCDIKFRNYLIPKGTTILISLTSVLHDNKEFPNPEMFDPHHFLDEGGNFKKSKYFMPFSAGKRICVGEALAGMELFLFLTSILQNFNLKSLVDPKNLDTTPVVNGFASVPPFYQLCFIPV
Source text: as §2

[7] = biological target: T4, CYP2D6 (Homo sapiens, UniProt P10635); experiment: as above; type: in vitro ADME
T4 construct: from tissue; host or cells: human liver microsomes
T4 sequence (P10635 whole entry): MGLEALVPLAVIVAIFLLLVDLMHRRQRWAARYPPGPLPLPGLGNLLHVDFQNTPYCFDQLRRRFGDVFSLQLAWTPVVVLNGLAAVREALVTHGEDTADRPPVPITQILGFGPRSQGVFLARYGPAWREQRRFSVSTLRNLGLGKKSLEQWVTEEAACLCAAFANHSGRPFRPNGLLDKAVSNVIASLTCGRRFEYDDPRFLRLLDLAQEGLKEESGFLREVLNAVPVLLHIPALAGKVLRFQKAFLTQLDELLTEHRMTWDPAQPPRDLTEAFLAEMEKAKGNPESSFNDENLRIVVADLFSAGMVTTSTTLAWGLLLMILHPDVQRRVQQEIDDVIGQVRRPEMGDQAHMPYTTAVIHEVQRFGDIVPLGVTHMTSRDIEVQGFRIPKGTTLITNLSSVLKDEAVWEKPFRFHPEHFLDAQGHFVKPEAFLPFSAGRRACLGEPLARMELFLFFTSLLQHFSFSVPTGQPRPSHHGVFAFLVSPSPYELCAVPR
Source text: as §2

[8] = biological target: T5, CYP1A2 (Homo sapiens, UniProt P05177); experiment: as above; type: in vitro ADME
T5 construct: from tissue; host or cells: human liver microsomes
T5 sequence (P05177 1-516): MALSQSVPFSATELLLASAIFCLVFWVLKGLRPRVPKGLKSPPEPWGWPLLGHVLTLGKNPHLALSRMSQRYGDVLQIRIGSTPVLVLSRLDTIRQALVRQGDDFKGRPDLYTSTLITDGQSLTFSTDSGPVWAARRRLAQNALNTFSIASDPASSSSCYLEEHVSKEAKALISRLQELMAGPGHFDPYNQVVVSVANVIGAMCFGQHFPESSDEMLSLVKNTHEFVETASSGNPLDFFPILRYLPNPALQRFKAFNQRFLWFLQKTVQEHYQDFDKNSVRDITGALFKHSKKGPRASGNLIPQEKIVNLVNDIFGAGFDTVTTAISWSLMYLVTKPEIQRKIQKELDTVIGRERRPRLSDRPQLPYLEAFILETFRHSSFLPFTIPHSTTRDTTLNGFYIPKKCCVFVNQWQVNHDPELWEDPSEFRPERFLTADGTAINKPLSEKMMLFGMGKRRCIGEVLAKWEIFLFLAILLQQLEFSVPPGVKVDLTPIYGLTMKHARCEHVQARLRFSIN
Source text: as §2

[9] = biological target: T6, CYP3A4-M (Homo sapiens, UniProt P08684); experiment: as above; type: in vitro ADME
T6 construct: from tissue; host or cells: human liver microsomes
T6 sequence (P08684 whole entry): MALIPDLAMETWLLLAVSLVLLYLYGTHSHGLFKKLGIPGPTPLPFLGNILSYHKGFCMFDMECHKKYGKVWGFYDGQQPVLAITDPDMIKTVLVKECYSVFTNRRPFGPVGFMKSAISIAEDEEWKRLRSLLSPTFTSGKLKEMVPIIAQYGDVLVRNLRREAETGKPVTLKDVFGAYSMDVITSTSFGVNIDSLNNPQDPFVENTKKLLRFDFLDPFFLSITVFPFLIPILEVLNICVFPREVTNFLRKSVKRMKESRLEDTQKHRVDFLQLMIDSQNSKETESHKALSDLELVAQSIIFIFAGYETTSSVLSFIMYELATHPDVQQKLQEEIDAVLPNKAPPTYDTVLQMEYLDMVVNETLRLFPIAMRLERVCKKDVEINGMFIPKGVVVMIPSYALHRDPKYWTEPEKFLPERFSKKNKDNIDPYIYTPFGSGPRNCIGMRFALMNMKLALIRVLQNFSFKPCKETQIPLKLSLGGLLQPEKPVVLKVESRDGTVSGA
Source text: as §2

[10] = biological target: T7, CYP2C8 (Homo sapiens, UniProt P10632); experiment: as above; type: in vitro ADME
T7 construct: from tissue; host or cells: human liver microsomes
T7 sequence (P10632 1-490): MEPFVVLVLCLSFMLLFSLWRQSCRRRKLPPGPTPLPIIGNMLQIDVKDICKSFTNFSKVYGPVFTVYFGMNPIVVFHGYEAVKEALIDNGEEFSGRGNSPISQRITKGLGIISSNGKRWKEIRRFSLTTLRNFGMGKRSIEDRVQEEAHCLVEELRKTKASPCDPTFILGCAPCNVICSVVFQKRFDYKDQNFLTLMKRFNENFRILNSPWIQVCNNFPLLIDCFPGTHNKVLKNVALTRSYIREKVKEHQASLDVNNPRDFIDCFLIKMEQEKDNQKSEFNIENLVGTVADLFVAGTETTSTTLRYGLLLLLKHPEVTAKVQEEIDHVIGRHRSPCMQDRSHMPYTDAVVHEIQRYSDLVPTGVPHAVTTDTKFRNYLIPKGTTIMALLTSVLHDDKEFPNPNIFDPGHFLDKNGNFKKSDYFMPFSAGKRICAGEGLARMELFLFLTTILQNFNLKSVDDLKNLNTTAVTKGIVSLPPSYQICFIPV
Source text: as §2

Row | SMILES | Reduction in % sickled cells compared to untreated [1] | half-life [2] | delta p50 0.2 mM [3] | delta p50 0.5 mM [3] | half-life [4] | IC50 [5] | IC50 [6] | IC50 [7] | IC50 [8] | IC50 [9] | IC50 [10]
1 | [2H]C([2H])(Oc1cc(F)cc(O)c1C=O)c1cccnc1-c1ccnn1C(C)C [Example 27b, 4-fluoro-2-hydroxy-6-((2-(1-isopropyl-1H-pyrazol-5-yl)pyridin-3-yl)methoxy-d2)benzaldehyde] | −30.8% | 24 min | −18.8% | −56.6% | 19 min | 6.1 µM | 11 µM | > 30 µM | 22 µM | 10 µM | 3.7 µM
2 | [2H]C([2H])(Oc1cccc(O)c1C=O)c1cccnc1-n1ccnc1C(C)C [Example 29e, 2-hydroxy-6-((2-(2-isopropyl-1H-imidazol-1-yl)pyridin-3-yl)methoxy-d2)benzaldehyde] | −27.1% | 11 min | −24.9% | −66.1% | 11 min | 19.5 µM | 36.5 µM | > 50 µM | > 50 µM | > 50 µM | > 50 µM
3 | CC(C)n1nccc1-c1ncccc1COc1cccc(O)c1C=O [GBT440, reference compound] | −22.4% | 24 min | −14.2% | −35.1% | 22 min | 7 µM | 28.1 µM | > 30 µM | 17.6 µM | > 30 µM | 12.4 µM
